Laboratory results: US20230348418A1, “ISOINDOLINONE COMPOUNDS” (Monte Rosa Therapeutics, Inc., priority 2021, published 2023)

How the values were obtained:
NCI-H1770 = assay: N-Myc-driven mouse xenograft model, human cell line NCI-H1770 (FIG. 3C); assay type: in vivo
GSPT1 [1] = target: T1, GSPT1 (Homo sapiens, UniProt P15170+Q96SW2); assay: GSPT1 degradation in NCI-H1155 cells; assay type: cell-based
Experimental: (§1) GSPT1 was degraded by compound 10 after six hours of treatment in high N-Myc NCI-H1155 and ABC-1 cells with a DC50 of 3 nM and 22 nM, respectively (x-axys represents […]M concentration of compound 10; y-axis represents the viability in %).

[2] = test system: NCI-H1155 cells (human non small cell lung cancer); assay: NCI-H1155 xenograft study; assay type: in vivo, BALB/c nude mice
Experimental: For the NCI-H1155 xenograft study, cells (human non small cell lung cancer, ATCC CRL-5818) were maintained in vitro as suspension culture in ATCC-formulated DMEM:F12 Medium supplemented as recommended by the provider and kept at 37° C. in an atmosphere of 5% CO2 in air. Cells (0.5 millions) were resuspended in 0.2 mL of PBS with Matrigel (50:50) and inoculated into female BALB/c nude mice, 6-8 weeks old, and allowed to grow to 150 mm^3 in size. Mice were dosed orally with either vehicle or compound 10 at 1 or 3 mg per kilogram daily (filled squares and filled triangles, respectively) or 6 mg per kilogram for 5 continuous days followed by 9 days treatment holidays (5 On-9 off) (filled inverted triangles). Compound formulations were prepared fresh daily in 5% vDMSO/95%(30% w/v HP-β-CD in water). Gemcitabine dosed at 40 mg per kilogram, IP, Q4Dx5 was used as a positive control (filled rhombi). For this study, mice were dosed for 21 days with tumor volumes measured every 3 days.

GSPT1 [3] = target: T1, GSPT1; assay: relative levels of GSPT1 versus concentration (FIG. 2B); assay type: cell-based; design: endogenous in cells; host or cells: MM1S (ATCC CRL-2974); conditions: cell line not named
Experimental: as §1

SALL4 = target: T2, SALL4 (Homo sapiens, UniProt Q9UJQ4); assay: SALL4 degradation in treated cells (FIG. 1A); assay type: cell-based; conditions: concentrations up to 30 µM
T2 construct: endogenous in cells

GSPT1 [4] = target: T1, GSPT1; assay: GSPT1 levels by western blotting/densitometry in NSCLC cell lines NCI-H1155 and ABC-1; assay type: cell-based
Experimental: The anti-proliferative activity of compound 10 was tested on representative N-Myc high and N-Myc low cell lines (NCI-H1155, ABC-1 and EBC-1, NCI-H2023, respectively) following treatment with compound for 72 hours. Cells were sub-cultures as recommended by the providers (ATCC, DSMZ) and incubated at 37° C., 5% CO2. All cells were authenticated and confirmed by Short Tandem Repeat (STR) profiling. Briefly, cells were seeded to the appropriate density to allow logarithmic growth over the assay period in 96-well opaque-walled clear bottom plates (from Corning, Cat. No. 3903, Lot. No. 16419061; 100 μL total volume) and incubated overnight. […] Cell viability was assessed using the CellTiter-Glo assay kit as recommended by the Manufacturer (Promega, Cat. No. G7558, Lot. No. 0000385738) and measurements performed on the EnSpire multimode plate reader (Perkin Elmer). EC50 values were determined using Prism8 (GraphPad) and the asymmetric (five-parameter) equation and least squares fit. GSPT1 levels were assessed in the NCI-H1155 and ABC-1 cell lines by densitometry analysis following treatment with compound 10 for 6 hours and western blotting analysis. […] For chemiluminescence and colorimetric signals “optimal automatic exposure” settings (3×3 binning) were employed while fluorescence was detected using 1-4 seconds exposure time to achieve best GAPDH signals and avoid overexposure. […]

NCI-H1155 = assay: N-Myc-driven mouse xenograft model, human cell line NCI-H1155 (FIG. 3A); assay type: in vivo
[5] = 6 mg/kg PO, five days on and nine days off

T1 sequence (P15170 whole entry): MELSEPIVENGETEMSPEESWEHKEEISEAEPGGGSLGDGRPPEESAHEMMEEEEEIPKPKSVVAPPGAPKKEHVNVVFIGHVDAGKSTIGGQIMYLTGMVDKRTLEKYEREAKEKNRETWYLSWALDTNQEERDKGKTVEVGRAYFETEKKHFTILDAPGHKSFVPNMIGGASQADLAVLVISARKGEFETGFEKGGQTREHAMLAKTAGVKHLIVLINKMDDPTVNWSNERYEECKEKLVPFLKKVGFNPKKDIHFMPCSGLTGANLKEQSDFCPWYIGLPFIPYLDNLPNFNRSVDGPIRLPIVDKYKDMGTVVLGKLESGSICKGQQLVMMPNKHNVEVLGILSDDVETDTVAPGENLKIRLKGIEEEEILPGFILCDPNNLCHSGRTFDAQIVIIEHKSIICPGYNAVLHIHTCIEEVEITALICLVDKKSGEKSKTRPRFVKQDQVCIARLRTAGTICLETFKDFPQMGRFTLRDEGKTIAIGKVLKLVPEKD
T1 sequence (Q96SW2 whole entry): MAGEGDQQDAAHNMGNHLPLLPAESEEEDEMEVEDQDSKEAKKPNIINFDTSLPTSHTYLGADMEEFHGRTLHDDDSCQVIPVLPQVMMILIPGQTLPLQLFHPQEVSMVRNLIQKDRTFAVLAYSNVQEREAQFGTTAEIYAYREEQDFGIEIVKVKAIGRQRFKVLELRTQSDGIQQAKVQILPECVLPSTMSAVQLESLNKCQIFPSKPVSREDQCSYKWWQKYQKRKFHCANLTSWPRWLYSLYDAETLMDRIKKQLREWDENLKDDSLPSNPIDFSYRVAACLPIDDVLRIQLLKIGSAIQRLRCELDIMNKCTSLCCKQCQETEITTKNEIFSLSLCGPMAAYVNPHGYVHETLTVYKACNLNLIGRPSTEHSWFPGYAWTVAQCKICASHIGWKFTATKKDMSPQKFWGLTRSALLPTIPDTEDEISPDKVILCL
T1 sequence (Q16531 2-1140 partner limits assumed): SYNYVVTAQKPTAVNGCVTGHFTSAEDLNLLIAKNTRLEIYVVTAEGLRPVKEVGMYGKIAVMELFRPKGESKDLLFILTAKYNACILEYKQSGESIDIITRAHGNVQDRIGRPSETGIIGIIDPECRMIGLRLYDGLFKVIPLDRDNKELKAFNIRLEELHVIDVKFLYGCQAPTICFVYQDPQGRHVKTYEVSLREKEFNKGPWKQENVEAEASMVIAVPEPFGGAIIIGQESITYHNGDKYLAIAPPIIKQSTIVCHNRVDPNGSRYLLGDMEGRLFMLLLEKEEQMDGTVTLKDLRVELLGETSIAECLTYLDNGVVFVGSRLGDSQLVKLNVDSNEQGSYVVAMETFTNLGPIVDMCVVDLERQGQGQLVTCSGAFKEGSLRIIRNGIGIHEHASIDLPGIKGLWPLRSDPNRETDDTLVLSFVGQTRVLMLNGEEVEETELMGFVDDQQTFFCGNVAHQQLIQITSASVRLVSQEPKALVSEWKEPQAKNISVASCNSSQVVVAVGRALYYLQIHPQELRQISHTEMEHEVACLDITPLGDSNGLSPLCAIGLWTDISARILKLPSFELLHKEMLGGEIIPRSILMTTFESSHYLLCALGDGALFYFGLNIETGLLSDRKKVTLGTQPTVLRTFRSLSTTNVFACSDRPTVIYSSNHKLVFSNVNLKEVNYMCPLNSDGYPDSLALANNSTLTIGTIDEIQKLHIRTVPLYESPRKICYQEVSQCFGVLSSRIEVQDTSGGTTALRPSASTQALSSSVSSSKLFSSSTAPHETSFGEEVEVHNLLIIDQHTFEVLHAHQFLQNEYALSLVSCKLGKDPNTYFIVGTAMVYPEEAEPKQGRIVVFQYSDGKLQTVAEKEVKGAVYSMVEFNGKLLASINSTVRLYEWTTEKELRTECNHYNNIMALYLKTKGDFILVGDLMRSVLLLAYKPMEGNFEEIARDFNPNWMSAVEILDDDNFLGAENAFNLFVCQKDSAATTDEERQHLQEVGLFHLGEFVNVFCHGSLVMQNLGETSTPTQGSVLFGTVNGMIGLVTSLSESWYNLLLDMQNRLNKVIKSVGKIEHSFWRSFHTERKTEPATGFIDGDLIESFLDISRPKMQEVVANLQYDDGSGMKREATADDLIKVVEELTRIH
T2 sequence (Q96SW2 whole entry partner): as the sequence (Q96SW2 whole entry) above
T2 sequence (Q16531 2-1140 partner limits assumed): as the sequence (Q16531 2-1140 partner limits assumed) above
T2 sequence (Q9UJQ4 whole entry): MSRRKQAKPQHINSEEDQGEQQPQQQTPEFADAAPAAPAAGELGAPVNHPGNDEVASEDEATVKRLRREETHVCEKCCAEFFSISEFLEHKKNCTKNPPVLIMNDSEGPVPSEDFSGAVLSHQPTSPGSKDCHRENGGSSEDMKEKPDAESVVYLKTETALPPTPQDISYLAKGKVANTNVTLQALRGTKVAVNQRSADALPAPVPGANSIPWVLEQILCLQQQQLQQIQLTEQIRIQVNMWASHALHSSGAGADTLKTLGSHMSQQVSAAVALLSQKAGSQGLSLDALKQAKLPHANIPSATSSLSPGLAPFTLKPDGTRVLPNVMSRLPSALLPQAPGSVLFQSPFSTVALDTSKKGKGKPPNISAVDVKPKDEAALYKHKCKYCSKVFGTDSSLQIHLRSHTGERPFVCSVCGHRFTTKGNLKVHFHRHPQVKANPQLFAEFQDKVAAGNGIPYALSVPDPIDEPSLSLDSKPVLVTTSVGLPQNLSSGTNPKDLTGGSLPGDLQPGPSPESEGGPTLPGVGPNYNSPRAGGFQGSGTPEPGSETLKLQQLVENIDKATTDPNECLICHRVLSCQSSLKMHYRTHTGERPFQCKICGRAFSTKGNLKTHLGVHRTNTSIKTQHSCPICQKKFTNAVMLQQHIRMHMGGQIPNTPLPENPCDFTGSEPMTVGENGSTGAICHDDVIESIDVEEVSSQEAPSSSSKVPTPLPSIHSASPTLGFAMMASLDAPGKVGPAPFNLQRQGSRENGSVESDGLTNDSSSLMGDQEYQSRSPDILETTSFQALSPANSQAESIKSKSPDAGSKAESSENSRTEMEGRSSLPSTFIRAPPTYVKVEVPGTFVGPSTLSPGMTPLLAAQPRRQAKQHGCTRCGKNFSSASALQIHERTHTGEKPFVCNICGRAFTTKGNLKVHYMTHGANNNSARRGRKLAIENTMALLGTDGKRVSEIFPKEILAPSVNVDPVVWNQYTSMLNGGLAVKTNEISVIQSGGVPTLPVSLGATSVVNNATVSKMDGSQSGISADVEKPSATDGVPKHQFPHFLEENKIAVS

- extent of GSPT1 degradation (GSPT1 [1]): complete degradation
- GSPT1 degradation versus concentration (GSPT1 [3]): concentration dependent manner
- degradation of SALL4 (SALL4): no induction of degradation
- extent of GSPT1 degradation (GSPT1 [4]; high N-Myc NCI-H1155 and ABC-1 cells, six hours of treatment): Complete degradation of GSPT1
Structure (SMILES): Cc1ccc(NC(=O)OCc2ccc3c(c2)C(=O)N(C2CCC(=O)NC2=O)C3)cc1Cl (stereo not shown) [Compound 10]
- tumor size (tumor volume) (NCI-H1770; 3 mg/kg once daily, PO): tumor size decreased and remained so until the end of the study
- tumor size (tumor volume) (NCI-H1770; [5]): tumor size decreased and remained so until the end of the study
- body weight (NCI-H1770; oral administration, NCI-H1770 xenograft): no body weight loss observed
- tumor growth (tumor volume) (NCI-H1770; oral administration, NCI-H1770 xenograft, overall): tumor growth inhibition
- Tumor growth (FIG. 3A) ([2]; 1 mg/kg once daily, oral): tumor growth was suppressed for two weeks
- Tumor size (FIG. 3A) ([2]; 3 mg/kg once daily, oral): tumor size decreased, became undetectable by day eight and remained so until the end of the study at day 21
- Tumor size (FIG. 3A) ([2]; 6 mg/kg dosed for five days on and nine days off, oral): tumor size decreased, became undetectable by day eight and remained so until the end of the study at day 21
- body weight ([2]; oral administration, NCI-H1155 xenograft mice): no body weight loss observed
- Tumor growth (FIG. 3A) ([2]; oral administration, all dose groups): tumor growth inhibition
- Concentration dependence of GSPT1 degradation (FIG. 2B) (GSPT1 [4]; NCI-H1155 and ABC-1 cells): Degradation took place in a concentration dependent manner
- tumor growth (tumor volume) (NCI-H1155; 1 mg/kg once daily, PO): tumor growth was suppressed for two weeks
- tumor size (tumor volume) (NCI-H1155; 3 mg/kg once daily, PO): tumor size decreased, became undetectable by day eight and remained so until the end of the study at day 21
- tumor size (tumor volume) (NCI-H1155; [5]): tumor size decreased, became undetectable by day eight and remained so until the end of the study at day 21
- body weight (NCI-H1155; oral administration, NCI-H1155 xenograft): no body weight loss observed
- tumor growth (tumor volume) (NCI-H1155; oral administration, NCI-H1155 xenograft, overall): tumor growth inhibition
